According to PubChem BioAssay (NCI):
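The compound was tested at five concentrations on cells cultured in 96-well plates, with a 48-hour exposure period. TGI: total growth inhibition.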

Columns and labels:
Assay in all cases: growth of human tumour cells (NCI), 48 h
[1] = tested on: RXF 393 renal
[2] = tested on: DU-145 prostate
[3] = tested on: A549 NSCLC
[4] = tested on: SK-MEL-5 melanoma
[5] = tested on: UACC-257 melanoma
[6] = tested on: NCI/ADR-RES ovarian
[7] = tested on: CAKI-1 renal
[8] = tested on: NCI-H522 lung
[9] = tested on: UO-31 renal
[10] = tested on: K-562 leukemia
[11] = tested on: MCF7 breast
[12] = tested on: HCT-15 colon
[13] = tested on: HS 578T breast
[14] = tested on: NCI-H460 lung
[15] = tested on: LOX IMVI melanoma
[16] = tested on: SNB-75 CNS
[17] = tested on: COLO 205 colon
[18] = tested on: SF-268 CNS
[19] = tested on: SK-MEL-2 melanoma
[20] = tested on: OVCAR-8 ovarian
[21] = tested on: UACC-62 melanoma
[22] = tested on: OVCAR-3 ovarian
[23] = tested on: MALME-3M melanoma
[24] = tested on: IGROV1 ovarian
[25] = tested on: HOP-62 NSCLC
[26] = tested on: SN12C renal
[27] = tested on: MDA-N
[28] = tested on: SK-OV-3 ovarian
[29] = tested on: M14 melanoma
[30] = tested on: SNB-19 CNS
[31] = tested on: HCT-116 colon
[32] = tested on: BT-549 breast
[33] = tested on: TK-10 renal
[34] = tested on: ACHN renal
[35] = tested on: SK-MEL-28 melanoma
[36] = tested on: U251 CNS
[37] = tested on: MOLT-4 leukemia
[38] = tested on: HOP-92 NSCLC
[39] = tested on: NCI-H23 lung
[40] = tested on: HT29 colon
[41] = tested on: PC-3 prostate
[42] = tested on: EKVX NSCLC
[43] = tested on: SF-295 CNS
[44] = tested on: RPMI-8226 leukemia
[45] = tested on: OVCAR-5 ovarian
[46] = tested on: 786-0 renal
[47] = tested on: NCI-H226 lung
[48] = tested on: SW-620 colon
[49] = tested on: SR leukemia
[50] = tested on: MDA-MB-231 breast
[51] = tested on: HL-60(TB) leukemia
[52] = tested on: KM12 colon
[53] = tested on: T-47D breast
[54] = tested on: SF-539 CNS
[55] = tested on: MDA-MB-435
[56] = tested on: OVCAR-4 ovarian
[57] = tested on: HCC-2998 colon
[58] = tested on: CCRF-CEM leukemia
[59] = tested on: A498 renal

O=c1[nH]nc(-c2ccccc2)n1/N=C\CC/C=N\n1c(-c2ccccc2)n[nH]c1=O
TGI [1]: > 100 µM
TGI [2]: > 100 µM
TGI [3]: > 100 µM
TGI [4]: > 56 µM
TGI [5]: > 100 µM
TGI [6]: 96.9 µM
TGI [7]: > 100 µM
TGI [8]: > 100 µM
TGI [9]: > 100 µM
TGI [10]: > 100 µM
TGI [11]: > 92.2 µM
TGI [12]: 49.9 µM
TGI [13]: > 83.7 µM
TGI [14]: > 74.5 µM
TGI [15]: 27.1 µM
TGI [16]: > 100 µM
TGI [17]: > 100 µM
TGI [18]: > 71 µM
TGI [19]: 50.9 µM
TGI [20]: > 86.9 µM
TGI [21]: 43.5 µM
TGI [22]: 51.8 µM
TGI [23]: 72.4 µM
TGI [24]: > 85.2 µM
TGI [25]: 98.7 µM
TGI [26]: 47 µM
TGI [27]: 44.3 µM
TGI [28]: > 100 µM
TGI [29]: 47.1 µM
TGI [30]: > 100 µM
TGI [31]: > 66.7 µM
TGI [32]: 60.9 µM
TGI [33]: > 100 µM
TGI [34]: > 100 µM
TGI [35]: > 54.6 µM
TGI [36]: > 100 µM
TGI [37]: > 31.6 µM
TGI [38]: 84.6 µM
TGI [39]: 21.7 µM
TGI [40]: 42.5 µM
TGI [41]: > 77.5 µM
TGI [42]: > 100 µM
TGI [43]: > 100 µM
TGI [44]: 99.8 µM
TGI [45]: > 100 µM
TGI [46]: 75.9 µM
TGI [47]: > 72.2 µM
TGI [48]: > 100 µM
TGI [49]: > 94.8 µM
TGI [50]: > 81.4 µM
TGI [51]: > 100 µM
TGI [52]: > 100 µM
TGI [53]: 99 µM
TGI [54]: > 69.5 µM
TGI [55]: 60.8 µM
TGI [56]: > 100 µM
TGI [57]: > 100 µM

O=C(/C=C/c1ccc(O)c(O)c1)OCCCOC(=O)/C=C/c1ccc(O)c(O)c1
TGI [58]: > 100 µM
TGI [1]: 79.6 µM
TGI [2]: > 100 µM
TGI [3]: > 100 µM
TGI [4]: 32.9 µM
TGI [5]: > 100 µM
TGI [6]: > 100 µM
TGI [7]: > 100 µM
TGI [8]: 40.6 µM
TGI [9]: > 100 µM
TGI [10]: > 100 µM
TGI [11]: > 100 µM
TGI [12]: > 100 µM
TGI [13]: > 100 µM
TGI [14]: > 100 µM
TGI [15]: 69.6 µM
TGI [16]: > 100 µM
TGI [17]: > 100 µM
TGI [18]: > 100 µM
TGI [19]: > 100 µM
TGI [20]: > 100 µM
TGI [21]: 49.4 µM
TGI [22]: 32.8 µM
TGI [23]: > 100 µM
TGI [24]: > 100 µM
TGI [25]: 67.9 µM
TGI [26]: > 100 µM
TGI [27]: 80.1 µM
TGI [28]: > 100 µM
TGI [59]: > 100 µM
TGI [29]: 65.8 µM
TGI [30]: > 100 µM
TGI [31]: > 100 µM
TGI [32]: > 100 µM
TGI [33]: > 100 µM
TGI [34]: > 100 µM
TGI [35]: > 100 µM
TGI [36]: > 100 µM
TGI [37]: > 100 µM
TGI [38]: 84.4 µM
TGI [39]: 78 µM
TGI [40]: > 100 µM
TGI [41]: > 100 µM
TGI [42]: > 100 µM
TGI [43]: 53.6 µM
TGI [44]: > 100 µM
TGI [45]: > 100 µM
TGI [46]: > 100 µM
TGI [48]: > 100 µM
TGI [49]: > 100 µM
TGI [50]: > 100 µM
TGI [52]: > 100 µM
TGI [53]: > 100 µM
TGI [54]: > 100 µM
TGI [55]: > 100 µM
TGI [56]: > 100 µM
TGI [57]: > 100 µM

O=[N+]([O-])c1ccc2c(c1)c1nn2CCCCOc2nn(c3ccc([N+](=O)[O-])cc23)CCCCO1
TGI [1]: > 100 µM
TGI [2]: > 100 µM
TGI [5]: > 100 µM
TGI [6]: > 100 µM
TGI [7]: > 100 µM
TGI [8]: > 100 µM
TGI [9]: > 100 µM
TGI [10]: > 100 µM
TGI [11]: > 100 µM
TGI [12]: > 100 µM
TGI [13]: > 100 µM
TGI [14]: > 100 µM
TGI [15]: > 100 µM
TGI [16]: > 100 µM
TGI [17]: > 100 µM
TGI [18]: > 100 µM
TGI [19]: > 100 µM
TGI [20]: > 100 µM
TGI [22]: > 100 µM
TGI [23]: > 100 µM
TGI [24]: > 100 µM
TGI [25]: > 100 µM
TGI [26]: > 100 µM
TGI [27]: > 100 µM
TGI [28]: > 100 µM
TGI [59]: > 100 µM
TGI [29]: > 100 µM
TGI [30]: > 100 µM
TGI [31]: > 100 µM
TGI [32]: > 100 µM
TGI [34]: > 100 µM
TGI [35]: > 100 µM
TGI [36]: > 100 µM
TGI [37]: > 100 µM
TGI [38]: > 100 µM
TGI [39]: > 100 µM
TGI [41]: > 100 µM
TGI [42]: > 100 µM
TGI [43]: > 100 µM
TGI [44]: > 100 µM
TGI [45]: > 100 µM
TGI [46]: > 100 µM
TGI [47]: > 100 µM
TGI [49]: > 100 µM
TGI [50]: > 100 µM
TGI [51]: > 100 µM
TGI [53]: > 100 µM
TGI [54]: > 100 µM
TGI [55]: > 100 µM
TGI [56]: > 100 µM
TGI [57]: > 100 µM

c1ccc2c(c1)c1c(n2CCOCCCN2CCCCC2)CCCC1
TGI [1]: 25.1 µM
TGI [2]: > 100 µM
TGI [3]: 39.2 µM
TGI [4]: 40.7 µM
TGI [5]: 32.9 µM
TGI [6]: 40.6 µM
TGI [7]: 39.3 µM
TGI [8]: 29.8 µM
TGI [9]: 25.4 µM
TGI [10]: 30.9 µM
TGI [11]: 31.5 µM
TGI [12]: 27.6 µM
TGI [13]: 47.8 µM
TGI [14]: 29.8 µM
TGI [16]: 38.7 µM
TGI [17]: 45.5 µM
TGI [18]: 99.8 µM
TGI [19]: 37.6 µM
TGI [20]: 32.5 µM
TGI [22]: 30.7 µM
TGI [23]: 33.3 µM
TGI [24]: 29.2 µM
TGI [25]: 30.6 µM
TGI [26]: 34.3 µM
TGI [27]: 47.8 µM
TGI [59]: 91.9 µM
TGI [29]: > 100 µM
TGI [30]: 75.4 µM
TGI [32]: 29.6 µM
TGI [33]: 31.9 µM
TGI [34]: 28.4 µM
TGI [35]: 38.5 µM
TGI [36]: 30.5 µM
TGI [37]: 19.6 µM
TGI [38]: 58.1 µM
TGI [39]: 37.9 µM
TGI [40]: 24.7 µM
TGI [41]: 33.1 µM
TGI [42]: 62.5 µM
TGI [44]: 92 µM
TGI [45]: 30 µM
TGI [47]: 32.5 µM
TGI [48]: 39.6 µM
TGI [49]: 35.1 µM
TGI [50]: 40.1 µM
TGI [51]: 30.4 µM
TGI [52]: 30 µM
TGI [53]: 43.9 µM
TGI [54]: 31.3 µM
TGI [55]: 33.8 µM
TGI [56]: 57 µM
TGI [57]: 33.7 µM

Nc1ncnc2c1ncc(=O)n2C1CC(O)C(CO)O1 (centres undefined)
TGI [58]: > 100 µM
TGI [2]: > 100 µM
TGI [3]: > 100 µM
TGI [4]: > 100 µM
TGI [5]: > 100 µM
TGI [6]: > 100 µM
TGI [7]: > 100 µM
TGI [8]: > 100 µM
TGI [9]: > 100 µM
TGI [10]: > 100 µM
TGI [11]: > 100 µM
TGI [12]: > 100 µM
TGI [13]: > 100 µM
TGI [14]: > 100 µM
TGI [15]: > 100 µM
TGI [16]: > 100 µM
TGI [17]: > 100 µM
TGI [18]: > 100 µM
TGI [19]: > 100 µM
TGI [20]: > 100 µM
TGI [21]: > 100 µM
TGI [22]: > 100 µM
TGI [23]: > 100 µM
TGI [24]: > 100 µM
TGI [25]: > 100 µM
TGI [26]: > 100 µM
TGI [27]: > 100 µM
TGI [28]: > 100 µM
TGI [59]: > 100 µM
TGI [29]: > 100 µM
TGI [30]: > 100 µM
TGI [31]: > 100 µM
TGI [32]: > 100 µM
TGI [33]: > 100 µM
TGI [34]: > 100 µM
TGI [35]: > 100 µM
TGI [36]: > 100 µM
TGI [37]: > 100 µM
TGI [38]: > 100 µM
TGI [39]: > 100 µM
TGI [40]: > 100 µM
TGI [41]: > 100 µM
TGI [42]: > 100 µM
TGI [43]: > 100 µM
TGI [44]: > 100 µM
TGI [45]: > 100 µM
TGI [46]: > 100 µM
TGI [47]: > 100 µM
TGI [48]: > 100 µM
TGI [49]: > 100 µM
TGI [50]: > 100 µM
TGI [52]: > 100 µM
TGI [53]: > 100 µM
TGI [54]: > 100 µM
TGI [55]: > 100 µM
TGI [56]: > 100 µM
TGI [57]: > 100 µM
